In article PMC3158126, “Characterization of antigenic variants of hepatitis C virus in immune evasion” (Virology Journal, 2011):

Columns and labels:
[1] = system: PBMC from a HCV-infected patient B3019; assay: T-cell proliferation (tritiated thymidine incorporation) with single wild type and variant peptides; type: cell-based, human; details: flow cytometry analysis of cells stimulated by wild type peptide
[2] = system: CD4+ cells from PBMC of HLA-DRB1*15-positive HCV-infected patients; assay: Intracellular cytokine staining and flow cytometry of purified CD4+ cells (Treg phenotypes), HCV+ patients; type: cell-based, human
Protocol: (§1) PBMCs were re-suspended at a concentration of 1 × 10^6 /ml in RPMI 1640 tissue culture medium as mentioned above in the description of the proliferation assay. 1 ml aliquots of PBMC were added to a 24-well tissue culture plate containing each wild type NS3_358-375 or variant pool, and medium alone. The concentrations of peptides are 5 μM for NS3_358-375 and 1 μM for each of variant peptides. After culturing for 66 hours, the PBMCs were treated with anti-human CD4 antibodies and magnetic micro-beads (Miltenyi Biotec, Auburn, CA) for positive selection of CD4 cells using a Magnetic Cell Separator (MACS, Miltenyi Biotec). The purity of CD4^+ cells obtained was 99.3% determined by Flow Cytometry.
(§2) The purified CD4^+ cells were treated with 0.5 ml of fix/permeabilizing solution (BD Pharmingen) for 10 minutes. After washing, the appropriate volume of specific fluorescent-labeled anti-CD25-ECD, anti-IFN-γ-FITC, anti-IL-10-PE, anti-TGF-β1-biotin and streptavidin-CyChrome were added to each of the tubes. One additional tube of CD4^+ cells were incubated with Foxp3-FITC, CD152 (CTLA-4)-PE and CD25-ECD. A tube of pooled CD4^+ cells from each culture was stained with isotype antibodies equivalent to each of the antibodies described above. In addition, four tubes of pooled CD4^+ cells were stained with each of the above antibodies alone as single-color controls which is necessary for color compensation. All tubes were incubated for 30 minutes in dark at room temperature. After washing, cells were re-suspended in 300 μl of wash buffer (BD Pharmingen), and a four color or three-color flow cytometry assay was performed within 24 hours at the Flow Cytometry Service Laboratory of the University of Illinois at Chicago. A total 1 × 10^5 cells were counted to determine the ratio of CD25^+, CD25^- and cytokine producing cells of each CD4^+ population.
Figure 3 Treg phenotypes induced by peptide NS3_358-375 and variant pools VP1 and VP2. Cell culture adn purification of CD4^+ cells and controls were the same as described in Figure 2. Intracellular staining and four-color flow cytometry using fluorescent-labeled antibodies to human CD25, IFN-γ, TGF-β and IL-10 were performed with purified CD4^+ cells. A pool from each test was used as an isotype control. A: Percentages of CD25^+ gated CD4^+ cells. […] B: Percentages of Th3 and Tr1 cells. Note that 58~67% of the CD25^+ cells were TGF-β^+ (sum of the upper two quadrants). A majority of the CD25^+IL-10^+ cells were also TGF-β^+ (the upper right quadrant). C: Percentages of CD25^- gated CD4^+ cells. D: Percentages of Th3 and Tr1 cells. […] Two representatives of eight experiments are shown. […]

[3] = system: CD4+ cells from PBMC of HLA-DRB1*15-positive healthy individuals; assay: Intracellular cytokine staining and flow cytometry of purified CD4+ cells (Treg phenotypes), HCV- healthy subjects; type: cell-based, human; details: median (range), n = 3 HLA-DRB1*15+ healthy subjects; NS3_358-375 5 μM or variant pool 1 μM each peptide, 66 hours
Protocol: as §1, §2
Supplementary file 1743-422X-8-377-S3.DOC: Additional file 3 Figure S2. CD4+CD25+ and CD4+CD25- Tregs of a HCV- healthy individual. Experiments, controls, and data analysis were the same as described in Figure 4. A: Percentages of CD25+ and CD25- gated CD4+ cells. B: Percentages of CD25+ Th3 and Tr1 cells. C: Percentages of CD25- Th3 and Tr1 cells. A single representative of three experiments is shown. Click here for file

[4] = system: CD4+ T cells of HCV-infected patient; assay: Foxp3 and CTLA-4 (CD152) expression on CD4+CD25+ and CD4+CD25- cells, flow cytometry; type: cell-based, human
Protocol: as §2
Figure 4 Characteristics of antigen-driven CD25^+ and CD25^- Tregs. Cellular culture and separation of CD4^+ T cells and controls were the same as described in Figure 2. The purified CD4^+ cells were stained with fluorescent-labeled antibodies for human CD25, CTLA-4 and Foxp3 followed by a flow cytometry assay. The effect of peptide NS3_358-375 and variant pools VP1 and VP2 on expression of Foxp3 (A) and CTLA-4 (B) on CD4^+CD25^- (blue) and CD4^+CD25^+ (red) T cells is shown. Median values for each population are shown in the boxes. One representative of two experiments is shown. […]

HLA-DRB1*1501 molecules = HLA-DRB1*1501 molecules (Homo sapiens, UniProt P01903+P01911); details: cited from earlier work
Source text: Our previous studies identified a CD4 epitope derived from the NS3 protein of HCV, NS3_358-375 [38]. […] Antigenic variants of the Th1 epitope were identified by RT-PCR, cloning and sequencing. Peptides of wild type NS3_358-375 and its variants (single or double amino acid substitutions) were synthesized and used in the current study (Table 1).

[5] = cells obtained at about 1.5 years of HCV infection, Figure S3
[6] = median (range), n = 6 HLA-DRB1*15+ HCV+ patients, NS3_358-375 5 μM or variant pool 1 μM each peptide, 66 hours

VIKGGRHLIFCHSKKKCD [NS3_358-375]
proportion of peripheral proliferating cells that were CD4+ [1]: greater than 95%
ratio of CD4+CD25+ cells (CD25+ gated CD4+ cells) ([2]; Figure 3A, representative experiment, NS3_358-375 5 μM, pools 1 μM each peptide, listed as wild-type peptide): 26.0%
percentage of CD25-TGF-β+ cells among CD4+CD25- cells ([2]; Figure 3D, text value (upper two quadrants)): 12.7%
CD25-IL-10+ Tr1 cells ([2]; PBMCs from another DRB1*15+ patient infected with HCV over 20 years, Figure S4): 25%
CD25+ IL-10-secreting Tr1 cells [2, 5]: 2.9%
CD25- IL-10-secreting Tr1 cells [2, 5]: 7.6%
CD25+ of CD4+ cells, HCV+ patients [2, 6]: 21.6 (18 - 27) %
IL-10+ of CD4+CD25+ cells, HCV+ patients [2, 6]: 6.51 (3.0 - 11) %
TGFβ+ IL-10+ of CD4+CD25+ cells, HCV+ patients [2, 6]: 7.85 (5.0 - 12) %
TGFβ+ of CD4+CD25+ cells, HCV+ patients [2, 6]: 55.4 (37 - 59) %
CD25+ of CD4+ cells, HCV- subjects [3]: 10.1 (10 - 14) %
IL-10+ of CD4+CD25+ cells, HCV- subjects [3]: 2.95 (2.6 - 3.2) %
TGFβ+ IL-10+ of CD4+CD25+ cells, HCV- subjects [3]: 0.67 (0.5 - 2.5) %
TGFβ+ of CD4+CD25+ cells, HCV- subjects [3]: 5.04 (2.0 - 8.5) %
expression of Foxp3 and CTLA-4 compared to cells cultured with medium alone ([4]; CD25+ cells): down-regulated
Foxp3 level in CD4+CD25+ cells (median value) ([4]; Figure 4A, one representative of two experiments): 77.8
CTLA-4 (CD152) level on CD4+CD25+ cells (median value) ([4]; Figure 4B, one representative of two experiments): 38.4
binding to HLA-DRB1*1501 (HLA-DRB1*1501 molecules): binds to HLA-DRB1*1501 well
